For this assay, the system named is STAT5. In words: Immunoblotting (Western blot) analysis of STAT5 degradation efficiency of degraders in treated cells. In kind it is cell-based. The procedure:
Evaluation of the degradation efficiency of degraders may be accomplished by immunoblotting analysis. The representative general protocol is the following:
Cells are maintained in the appropriate culture medium with 10% FBS at 37° C. and an atmosphere of 5% CO2. Cell lines are used within three months of thawing fresh vials. Cells are lysed 1× Cell Lysis Buffer (Cell Signaling Technology, #9803), resolved by SDS-PAGE NuPAGE gel (Thermo Fisher Scientific), and transferred to a PVDF membrane (Millipore). Membranes are blocked using Odyssey TBS Blocker Buffer (LI-COR). IRDye 680RD and 800CW Dye-labeled secondary antibodies (LI-COR) are used. The washed membranes are scanned using Odyssey CLx imager (LI-COR). The intensity of Western blot signaling is quantitated using the Odyssey software. Primary antibodies used are: STAT5 Rabbit mAb (Cell Signaling Technology, #94205), STAT6 Rabbit mAb (Cell Signaling Technology, #5397) and GAPDH mouse monoclonal antibody (Santa Cruz Biotechnology, sc-47724).
To evaluate the degradation efficiency of degraders, immunoblotting analysis was performed. The general protocol is the following.
About 1 million cells for each data point were treated with compounds at indicated concentrations and durations. Untreated and treated cells in cell culture medium were transferred into tubes, followed by centrifugation at 3,000 rpm and 4° C. for 6 min Supernatants were removed from tubes and radioimmunoprecipitation assay (RIPA) lysis buffer supplemented with 1% protease inhibitor cocktail (Fisher Scientific cat. PI87786) and phosphatase inhibitor (Roche cat. 04906837001) were added to tubes containing the remaining cell pellets. The tubes were then left on ice for 30 min and placed in a −80° C. freezer. Subsequently they were thawed in 37° C. water, then centrifuged at 14,000 rpm for 15 min and the cell lysates transferred to new tubes. The concentration of total proteins in each tube was calculated using the Pierce BCA protein Assay kit (cat. 23225). Based on the calculated protein concentration, cell lysates containing approximately the same amount of proteins were transferred to new tubes, then distilled water and 4× Protein Sample Loading Buffer for Western Blots (LI-COR cat. 928-40004) supplemented with 20% of mercaptoethanol (Sigma Aldrich cat. M6250) were added on ice. The cell lysates were then reduced and denatured at 95° C. for 5 min. From the tubes containing cell lysates an equal amount of protein samples (20-40 μg) was loaded into precast 8%, 10%, 4%-12%, or 4%-20% Tris-glycine gels (Novex) filled with Tris-glycine SDS running buffer. After the proteins were resolved, they were transferred onto Immobile-FL PVDF Membrane (Millipore Sigma cat. IPFL00010), using Mini Trans-Blot Electrophoretic Transfer Cell (Bio-Rad 1703930). The membranes were blocked with Intercept Blocking Buffer (LI-COR cat. 927-70001) in LI-COR Western Blot boxes for 1 h at rt. The membranes were washed with 1× Tris-buffered saline-Tween-20 (TBST, 1× solution was made from 20×TBST solution, ThermoFisher Scientific cat. 28360) for 5 min 4 times. The membranes were incubated overnight at 4° C. in Intercept Blocking Buffer supplemented with primary antibodies (normally antibody:buffer 1:1000) and Tween-20. The membranes were washed with TBST for 5 min 4 times and were incubated with Intercept Blocking Buffer supplemented with IRDye 800CE Secondary Antibodies, IRDye 680RD Secondary Antibodies (LI-COR biosciences), Tween-20, and 10% SDS solution, for 1 h at rt. The membranes were then washed with TBST for 5 min 4 times and rinsed with deionized water before drying and scanning with Odyssey Dlx Amazing System (LI-COR). The immunoblots were finally quantified by the software.
For orientation: Immunoblotting shows a protein as a band on a membrane.

Setting [1] is: MOLM-16 cells, numeric bound, read-out: DC50 S5 MOLM-16.
[2] abbreviates: SKNO1 cells, read-out: DC50 S5 SKNO1.
Setting [3] is: KU-812 cells, read-out: DC50 S5 KU-812.

Structures are written as SMILES. Read-outs that look alike come from different tables or passages of the source.

Consider 10 compounds from patent US20230295197A1, “STAT5 and STAT6 Degraders and Uses Thereof” (REGENTS OF THE UNIVERSITY OF MICHICAN, priority 2022, published 2023).

By DC50 is commonly meant the midpoint of the concentration-degradation curve. `Cc1ccc(N(CCC(=O)NCCCC#Cc2cccc3c2CN(C2CCC(=O)NC2=O)C3=O)C(=O)[C@@H]2CCCN2C(=O)[C@@H](NC(=O)c2cc3cc(C(F)(F)P(=O)(O)O)ccc3s2)C(C)(C)C)cc1` (stereo partly drawn) [Compound 646, ((2-(((2S)-1-((2S)-2-((3-((5-(2-(2,6-dioxopiperidin-3-yl)-1-oxoisoindolin-4-yl)pent-4-yn-1-yl)amino)-3-oxopropyl)(p-tolyl)carbamoyl)pyrrolidin-1-yl)-3,3-dimethyl-1-oxobutan-2-yl)carbamoyl)benzo[b]thiophen-5-yl)difluoromethyl)phosphonic acid]: the DC50 by setting is: under setting [1], over 300 nM; under setting [2], 100 to 1000 nM.

Regarding `CCN1CC[C@H]2CC[C@@H](C(=O)N(CCC(=O)NCCCCCC#Cc3cccc4c3CN(C3CCC(=O)NC3=O)C4=O)c3ccc(Br)cc3)N2C(=O)[C@@H](NC(=O)c2cc3cc(C(F)(F)P(=O)(O)O)ccc3s2)C1` (stereo partly drawn) [Compound 629, ((2-(((5S,8S,10aR)-8-((4-bromophenyl)(3-((7-(2-(2,6-dioxopiperidin-3-yl)-1-oxoisoindolin-4-yl)hept-6-yn-1-yl)amino)-3-oxopropyl)carbamoyl)-3-ethyl-6-oxodecahydropyrrolo[1,2-a][1,5]diazocin-5-yl)carbamoyl)benzo[b]thiophen-5-yl)difluoromethyl)phosphonic acid], under setting [1], the DC50 is over 300 nM.

Take `CC(C)(C)[C@H](NC(=O)c1cc2cc(C(F)(F)P(=O)(O)O)ccc2s1)C(=O)N1C[C@@H](OCc2ccccc2)C[C@H]1C(=O)N(CCC(=O)NCCCC#Cc1cccc2c1CN(C1CCC(=O)NC1=O)C2=O)c1ccc(Br)cc1` (stereo partly drawn) [Compound 623, ((2-(((2S)-1-((2S,4S)-4-(benzyloxy)-2-((4-bromophenyl)(3-((5-(2-(2,6-dioxopiperidin-3-yl)-1-oxoisoindolin-4-yl)pent-4-yn-1-yl)amino)-3-oxopropyl)carbamoyl)pyrrolidin-1-yl)-3,3-dimethyl-1-oxobutan-2-yl)carbamoyl)benzo[b]thiophen-5-yl)difluoromethyl)phosphonic acid]: the half-maximal degradation concentration (DC50) under setting [1] is over 300 nM. With `CN(CCCC#Cc1cccc2c1CN(C1CCC(=O)NC1=O)C2=O)C(=O)CCN(C(=O)[C@@H]1CCCN1C(=O)[C@@H](NC(=O)c1cc2cc(C(F)(F)P(=O)(O)O)ccc2s1)C(C)(C)C)c1ccc2scnc2c1` (stereo partly drawn) [Compound 684, ((2-(((2S)-1-((2S)-2-(benzo[d]thiazol-5-yl(3-((5-(2-(2,6-dioxopiperidin-3-yl)-1-oxoisoindolin-4-yl)pent-4-yn-1-yl)(methyl)amino)-3-oxopropyl)carbamoyl)pyrrolidin-1-yl)-3,3-dimethyl-1-oxobutan-2-yl)carbamoyl)benzo[b]thiophen-5-yl)difluoromethyl)phosphonic acid], the DC50 lay in the range of 100 to 1000 nM under setting [3] and 100 to 1000 nM under setting [2]. On to `CC(C)(C)[C@H](NC(=O)c1cc2cc(C(F)(F)P(=O)(O)O)ccc2s1)C(=O)N1CCC[C@H]1C(=O)N(CCC(=O)NCCCC#Cc1cccc2c1CN(C1CCC(=O)NC1=O)C2=O)c1ccc(I)cc1` (stereo partly drawn) [Compound 637, ((2-(((2S)-1-((2S)-2-((3-((5-(2-(2,6-dioxopiperidin-3-yl)-1-oxoisoindolin-4-yl)pent-4-yn-1-yl)amino)-3-oxopropyl)(4-iodophenyl)carbamoyl)pyrrolidin-1-yl)-3,3-dimethyl-1-oxobutan-2-yl)carbamoyl)benzo[b]thiophen-5-yl)difluoromethyl)phosphonic acid], for which the DC50 was over 300 nM under setting [1] and 100 to 1000 nM under setting [2]. On to `CC(C)(C)[C@H](NC(=O)c1cc2cc(C(F)(F)P(=O)(O)O)ccc2s1)C(=O)N1CCC[C@H]1C(=O)N(CCC(=O)NCCCC#Cc1cccc2c1CN(C1CCC(=O)NC1=O)C2=O)c1ccccc1` (stereo partly drawn) [Compound 633, ((2-(((2S)-1-((2S)-2-((3-((5-(2-(2,6-dioxopiperidin-3-yl)-1-oxoisoindolin-4-yl)pent-4-yn-1-yl)amino)-3-oxopropyl)(phenyl)carbamoyl)pyrrolidin-1-yl)-3,3-dimethyl-1-oxobutan-2-yl)carbamoyl)benzo[b]thiophen-5-yl)difluoromethyl)phosphonic acid], for which the DC50 reads like this: under setting [3], over 10000 nM; under setting [1], over 300 nM; under setting [2], 1000 to 10000 nM. As to `CC(C)(C)[C@H](NC(=O)c1cc2cc(C(F)(F)P(=O)(O)O)ccc2s1)C(=O)N1CCC[C@H]1C(=O)N(CCC(=O)NCCCC#Cc1cccc2c1CN(C1CCC(=O)NC1=O)C2=O)c1ccc(C#N)cc1` (stereo partly drawn) [Compound 642, ((2-(((2S)-1-((2S)-2-((4-cyanophenyl)(3-((5-(2-(2,6-dioxopiperidin-3-yl)-1-oxoisoindolin-4-yl)pent-4-yn-1-yl)amino)-3-oxopropyl)carbamoyl)pyrrolidin-1-yl)-3,3-dimethyl-1-oxobutan-2-yl)carbamoyl)benzo[b]thiophen-5-yl)difluoromethyl)phosphonic acid], the DC50 by setting is: under setting [1], over 300 nM; under setting [2], over 10000 nM. On to `CC(C)(C)[C@H](NC(=O)c1cc2cc(C(F)(F)P(=O)(O)O)ccc2s1)C(=O)N1CCC[C@H]1C(=O)N(CCC(=O)NCCCCC#Cc1cccc2c1CN(C1CCC(=O)NC1=O)C2=O)c1ccc(Cl)cc1` (stereo partly drawn) [Compound 638, ((2-(((2S)-1-((2S)-2-((4-chlorophenyl)(3-((6-(2-(2,6-dioxopiperidin-3-yl)-1-oxoisoindolin-4-yl)hex-5-yn-1-yl)amino)-3-oxopropyl)carbamoyl)pyrrolidin-1-yl)-3,3-dimethyl-1-oxobutan-2-yl)carbamoyl)benzo[b]thiophen-5-yl)difluoromethyl)phosphonic acid], for which the DC50 (MOLM-16 cells, class symbols, read-out: DC50 S5 MOLM-16) fell in the range of 100 to 1000 nM. Consider `CC(C)(C)c1ccc(N(CCC(=O)NCCCC#Cc2cccc3c2CN(C2CCC(=O)NC2=O)C3=O)C(=O)[C@@H]2CCCN2C(=O)[C@@H](NC(=O)c2cc3cc(C(F)(F)P(=O)(O)O)ccc3s2)C(C)(C)C)cc1` (stereo partly drawn) [Compound 647, ((2-(((2S)-1-((2S)-2-((4-(tert-butyl)phenyl)(3-((5-(2-(2,6-dioxopiperidin-3-yl)-1-oxoisoindolin-4-yl)pent-4-yn-1-yl)amino)-3-oxopropyl)carbamoyl)pyrrolidin-1-yl)-3,3-dimethyl-1-oxobutan-2-yl)carbamoyl)benzo[b]thiophen-5-yl)difluoromethyl)phosphonic acid], for which the DC50 under setting [1] is over 300 nM and the DC50 under setting [2] lay within 1000 to 10000 nM. The matching figures for `CC(C)(C)[C@H](NC(=O)c1cc2cc(C(F)(F)P(=O)(O)O)ccc2s1)C(=O)N1CCC[C@H]1C(=O)N(CCC(=O)NCCCC#Cc1cccc2c1CN(C1CCC(=O)NC1=O)C2=O)c1ccc(Cl)c(F)c1` (stereo partly drawn) [Compound 636, ((2-(((2S)-1-((2S)-2-((4-chloro-3-fluorophenyl)(3-((5-(2-(2,6-dioxopiperidin-3-yl)-1-oxoisoindolin-4-yl)pent-4-yn-1-yl)amino)-3-oxopropyl)carbamoyl)pyrrolidin-1-yl)-3,3-dimethyl-1-oxobutan-2-yl)carbamoyl)benzo[b]thiophen-5-yl)difluoromethyl)phosphonic acid]: over 300 nM and over 10000 nM.
